Source: article PMC6442233, “SAR and molecular mechanism studies of monoamine oxidase inhibition by selected chalcone analogs” (Journal of Enzyme Inhibition and Medicinal Chemistry, 2019)

Legend:
[1] = system: Rat hepatoma (H4IIE) cells; experiment: Dopamine assay in H4IIE cells (HPLC with electrochemical detection); assay type: cell-based; conditions: 70 µM compound, 50 µM L-DOPA
Procedure: (§1) Rat hepatoma (H4IIE) cells were purchased from American Type Culture Collection (ATCC). H4IIE cells are from rat liver, and contain both MAO-A and MAO-B in approximately equal levels. Cells were cultured in Eagle’s minimum essential medium (EMEM) supplemented with 10% fetal bovine serum (FBS) and 1% streptomycin/penicillin at 37 °C in a 5% CO2 humidified incubator. Cells were plated at a cell density of 3.0 × 10^5 cells in each well of six well plates. Upon 80% confluence, the cells were washed with phosphate buffered saline (PBS) and the media were changed to HBSS supplemented with 10 mM HEPES and 5 mM D-glucose, pH 7.4. These media also contained calcium chloride (1.26 mM) and magnesium chloride (0.5 mM). Cells were then treated with tolcapone (1 0^−6 M), a catechol-O-methyltransferase (COMT) inhibitor to protect dopamine from enzymatic degradation, 20 min prior to starting the experiment. The cells were treated with the negative vehicle control (1% DMSO) or 70 µM of the MAO-B inhibitors (compounds 12, 14, 16, and 17) with the DMSO concentration also being 1%. The cells were subsequently treated with L-DOPA (50 µM). To measure dopamine release and MAO-B gene expression, both the cells and media were collected at 0, 30, 60, and 120 min after treatment. Dopamine level was measured in the supernatant aspirated from the cells by using high performance liquid chromatography (HPLC), while the cells were lysed with trizol for RNA extraction and subsequent gene expression studies.
Rat hepatoma cells (H4IIE) were treated with 1% DMSO (vehicle-control), compounds 12, 14, 16, or 17 for different time points at a concentration of 70 µM of each compound along with 50uM L-DOPA.
The concentrations of dopamine were detected using a CoulArray electrochemical array detector system as described previously. Briefly, supernatants obtained from cell culture were filtered using 0.22 μm filter. The filtrates were subsequently injected onto a C18 column (3.2 × 150 mm, 3 μm particle size, Thermo Scientific). The mobile phase consisted of a mixture of 54.3 mM sodium phosphate, 0.215 mM octyl sodium sulfate, 0.32 mM citric acid and 11% methanol. Dopamine concentrations were measured with the CoulArray Electrochemical Array Detector. The chromatograms were analyzed using the CoulArray software. A standard calibration curve was determined using different concentrations of an external standard dopamine (SigmaAldrich).
(§2) One-way ANOVA followed by Dunnett’s test (compared to the vehicle-control) was used to analyze the data obtained for the dopamine concentrations for compounds 12, 14, 16, and 17targeting MAO-B at 0, 30, 60, and 120 min. One-way ANOVA followed by Newman–Keuls multiple comparison tests was used to analyze time-dependent effects of compounds 14 and 17 on the relative mRNA expression (triplicate) of MAO-B enzyme.

[2] = target: T1, human MAO-A (Homo sapiens, UniProt P21397); experiment: IC50 determination for MAO-A inhibition (kynuramine, fluorescence); assay type: biochemical; conditions: recombinant hMAO-A, kynuramine 50 μM, mean ± SD (triplicate)
T1 construct: purchased Sigma-Aldrich
T1 sequence (P21397 1-527): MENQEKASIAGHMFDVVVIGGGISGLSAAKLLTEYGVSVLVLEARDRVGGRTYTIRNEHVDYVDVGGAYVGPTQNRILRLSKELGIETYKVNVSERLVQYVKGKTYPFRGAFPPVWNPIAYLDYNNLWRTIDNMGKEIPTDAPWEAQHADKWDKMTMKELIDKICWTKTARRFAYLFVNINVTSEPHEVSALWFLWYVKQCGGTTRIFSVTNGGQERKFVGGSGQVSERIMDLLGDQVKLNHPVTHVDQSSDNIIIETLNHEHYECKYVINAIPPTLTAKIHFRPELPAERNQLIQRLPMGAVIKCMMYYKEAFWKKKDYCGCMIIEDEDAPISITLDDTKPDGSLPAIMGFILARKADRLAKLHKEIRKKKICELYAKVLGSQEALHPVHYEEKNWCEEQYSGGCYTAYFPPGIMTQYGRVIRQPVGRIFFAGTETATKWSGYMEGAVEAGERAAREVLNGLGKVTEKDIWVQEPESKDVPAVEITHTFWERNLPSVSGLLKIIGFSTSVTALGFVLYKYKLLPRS
Procedure: (§3) IC50 values for the inhibition of MAO were determined by using the recombinant human MAO-A and MAO-B enzymes (Sigma-Aldrich). Enzyme reactions were performed at a final volume of 200 µL in white 96-well microplates (Eppendorf), with the reaction solvent consisting of potassium phosphate buffer (100 mM, pH 7.4, adjusted to isotonicity with KCl). The reactions contained the nonselective MAO substrate, kynuramine (50 μM), and the test inhibitors at 0.003–100 µM. The test compounds were initially dissolved in DMSO (100%), and after addition to the reactions yielded a concentration of 4% DMSO. Control reactions were included, which contained substrate and 4% DMSO but no test inhibitor. The MAO reactions were started by adding MAO-A (0.0075 mg protein/mL) or MAO-B (0.015 mg protein/mL), and were subsequently incubated for a period of 20 min (37 °C) in a convection oven. A volume of 80 µL 2 N sodium hydroxide was added to the reactions, and the fluorescence intensity of 4-hydroxyquinoline (the end-product of the MAO-catalyzed metabolism of kynuramine) in the reactions was measured at λex 310 and λem 400 nm. To quantify 4-hydroxyquinoline, a calibration curve (linear) ranging from 0.047 to 1.56 μM, was employed. […] These measurements were carried out in triplicate and the IC50 values are presented as the mean ± standard deviation (SD)[18].
(§4) The formation of the dihydropyridinium species (MMDP^+) as a MAO-catalyzed oxidation product of MMTP was monitored at 420 nm. […] Based on this, the IC50 values were determined using kynuramine as a nonselective substrate. The rate of oxidation of kynuramine by MAO was monitored by measuring the fluorescence of the oxidation product, 4-hydroxyquinoline (λex= 310 nm; λem= 400 nm).

[3] = system: MAO-B mRNA expression; experiment: MAO-B mRNA expression in H4IIE cells (qRT-PCR); assay type: cell-based, rat; conditions: 70 µM
Procedure: as §1
Total RNA was isolated using the Trizol agent (Invitrogen). One μg of RNA from each sample was reverse transcribed to cDNA using the M-MLV reverse transcriptase kit, according to the manufacturer’s instruction (Promega). PowerUp SYBR green master mix (Life technologies) was used for quantitative real-time polymerase chain reaction (qRT-PCR) for analysis of gene expression. The following primers were used (IDTs) MAO-B forward, […]; MAO-B reverse, […]; β-actin forward, […] and β-actin reverse, […]. qRT-PCR was performed in a 384 well plates with the Quant Studio-5 instrument (Applied Biosystems). Samples were carried out in triplicate in a 10 µL reaction volume using the following cycling conditions: UDG activation for one cycle at 50 °C for 2 min, followed by a single cycle at 95 °C for 2 min, then 40 cycles of denaturation at 95 °C for 15 s, and annealing at 60 °C for 1 min. β-actin was used as a loading control and gene expression was calculated using the 2^-ΔΔCT method as described previously.
as §2

[4] = target: T2, human MAO-B (Homo sapiens, UniProt P27338); experiment: IC50 determination for MAO-B inhibition (kynuramine, fluorescence); assay type: biochemical; conditions: for Selectivity index: SI = IC50(MAO-A)/IC50(MAO-B); for IC50: recombinant hMAO-B, kynuramine 50 μM, mean ± SD (triplicate)
T2 construct: purchased Sigma-Aldrich
T2 sequence (P27338 1-520): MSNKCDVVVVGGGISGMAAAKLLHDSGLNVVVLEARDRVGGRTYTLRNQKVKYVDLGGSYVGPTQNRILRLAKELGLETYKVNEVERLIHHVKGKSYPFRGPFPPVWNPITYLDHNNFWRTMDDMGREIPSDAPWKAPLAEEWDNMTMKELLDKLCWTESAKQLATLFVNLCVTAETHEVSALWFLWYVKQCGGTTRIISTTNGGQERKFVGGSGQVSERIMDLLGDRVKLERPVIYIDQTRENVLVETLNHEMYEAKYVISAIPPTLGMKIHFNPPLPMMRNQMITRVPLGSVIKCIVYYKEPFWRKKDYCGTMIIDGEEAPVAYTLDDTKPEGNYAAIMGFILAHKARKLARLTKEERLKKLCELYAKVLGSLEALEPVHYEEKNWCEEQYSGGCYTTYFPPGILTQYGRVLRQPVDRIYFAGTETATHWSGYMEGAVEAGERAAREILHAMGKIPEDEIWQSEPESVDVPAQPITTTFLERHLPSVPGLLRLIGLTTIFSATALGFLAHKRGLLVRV
Procedure: as §3, §4

[5] = target: T1, human MAO-A; experiment: Reversibility of MAO-A inhibition by dialysis; assay type: biochemical; conditions: for Reversibility of MAO-A inhibition: dialysis 24 h, inhibitor at 4 × IC50
Procedure: (§5) The reversibility of inhibition of MAO by compound 16 was investigated by dialysis. Dialysis cassettes (Slide-A-Lyzer®; Thermo Scientific) with a volume of 0.5–3 mL and a molecular weight cutoff of 10,000 were used for the dialysis. […] The volume of these mixtures was 0.8 mL, and contained 4% DMSO. The mixtures were pre-incubated for 15 min at 37 °C and then dialyzed at 4 °C in buffer (80 mL), using the above buffer as dialysis buffer. After 3 and 7 h of dialysis, the dialysis buffer was changed with fresh buffer. […] For comparison, incubations of the MAOs and the test inhibitor were prepared as above but were not dialyzed and kept at 4 °C over the same time period. These experiments were carried out in triplicate, and the remaining enzyme catalytic rates are reported as the mean (± SD).

[6] = target: T1, human MAO-A; experiment: Lineweaver-Burk plots and Ki calculation, MAO-A; assay type: biochemical
Procedure: (§6) Sets of six Lineweaver–Burk plots each were prepared to determine if the inhibition of MAO-A and MAO-B by compound 16 is competitive. […] The substrate, kynuramine, was used at concentrations ranging from 15 to 250 μM, whereas the final enzyme concentration was 0.015 mg protein/mL. […] Ki values were estimated by graphing the slopes of the Lineweaver–Burk plots against inhibitor concentration. The intercept of the x-axis is equal to –Ki.

[7] = target: T2, human MAO-B; experiment: Lineweaver-Burk plots and Ki calculation, MAO-B; assay type: biochemical
Procedure: as §6

[8] = target: T2, human MAO-B; experiment: Reversibility of MAO-B inhibition by dialysis; assay type: biochemical
Procedure: as §5

[9] = 4 × IC50, incubated 15 min, dialyzed 24 h, compared to negative control (100%)
[10] = 4 × IC50, not dialyzed, compared to negative control (100%)
[11] = Lineweaver-Burk plots cross on the y-axis
[12] = slopes of Lineweaver-Burk plots vs inhibitor concentration, kynuramine 15-250 μM

SMILES	Dopamine concentration vs vehicle-control ([1]; 30 min)	Dopamine concentration vs vehicle-control ([1]; 60 min)	Dopamine concentration vs vehicle-control ([1]; 120 min)	IC50 [2] [µM]	Relative MAO-B mRNA expression vs negative control ([3]; 0 min)	Relative MAO-B mRNA expression vs negative control ([3]; 30 min)	Relative MAO-B mRNA expression vs negative control ([3]; 60 min)	Selectivity index [4]	IC50 [4] [µM]	melting point [°C]	Reversibility of MAO-A inhibition [5]	further results
O=C(/C=C/c1ccc([N+](=O)[O-])cc1)c1ccc2c(c1)OCO2 [Compound 17, (E)-1-(benzo[d][1,3]dioxol-5-yl)-3–(4-nitrophenyl)prop-2-en-1-one]	increased	elevation	increase	0.927 ± 0.121	no significant changes	reduced	no significant changes	13	0.069 ± 0.004	172 to 175		Relative MAO-B mRNA expression vs 0 min time point ([3]; 30 min exposure): reduced; Relative MAO-B mRNA expression vs 0 min time point ([3]; 60 min exposure): reduced
C#CCN(C)Cc1ccccc1 [Pargyline, reference compound]											dialysis failed to restore catalytic activity	
O=C(/C=C/c1ccc(F)cc1)c1ccc2c(c1)OCO2 [Compound 14, (E)-1-(benzo[d][1,3]dioxol-5-yl)-3–(4-fluorophenyl)prop-2-en-1-one]	increased	elevation	increase	0.506 ± 0.052	no significant changes	reduced	no significant changes	11	0.043 ± 0.004	126 to 130		Relative MAO-B mRNA expression vs negative control ([3]; 120 min): decreased; Relative MAO-B mRNA expression vs 0 min time point ([3]; 120 min exposure): decreased
O=C(/C=C/c1ccc(Cl)cc1)c1ccc2c(c1)OCO2 [Compound 16, (E)-1-(benzo[d][1,3]dioxol-5-yl)-3–(4-chlorophenyl)prop-2-en-1-one]				0.149 ± 0.011				3.0	0.05 ± 0.002		reversibly inhibits	MAO-A activity after dialysis [5, 9]: 103%; MAO-A activity, undialyzed samples [5, 10]: 31%; Mode of MAO-A inhibition [6, 11]: competitive; Ki [6, 12]: 47 nM; Mode of MAO-B inhibition [7, 11]: competitive; Ki [7, 12]: 20 nM; MAO-B activity after dialysis [8, 9]: 105%; MAO-B activity, undialyzed samples [8, 10]: 34%; Reversibility of MAO-B inhibition ([8]; dialysis 24 h, inhibitor at 4 × IC50): reversibly inhibits
